Assays:
[1] = test system: NFkB knock down oral keratinocytes; assay: Cell death in NFkB knock down oral keratinocytes (FS/PI); assay type: cell-based, human; details: overnight
Text: Next, retrovirally-transduced oral keratinocytes were left untreated or treated with HEMA. […] Numbers in each quadrant represent the percentages of cells in that quadrant.
Similar treatments were next performed as described above except that the morphological assessment of oral keratinocytes before and after HEMA treatment was examined.

[2] = test system: human dental pulp stromal cells; assay: Apoptosis in human dental pulp stromal cells, 18 hours; assay type: cell-based; details: HEMA and NAC 20 mM
Protocol: Pulp was then removed, minced and treated with trypsin/EDTA and collagenase to release the dental pulp stromal cells. […] Next the cells were analyzed for apoptosis using FTIC-Annexin V and PI.

[3] = test system: osteopontin (OPN) and osteocalcin (OCN); assay: RT-PCR for osteopontin and osteocalcin in rat dental pulp stromal cells; assay type: cell-based; details: media containing ascorbic acid and β-glycerophosphate
Text: Rat dental pulp stromal cells were again cultured under 3 different conditions: (1) DMEM alone (undifferentiated); (2) DMEM+β-glycerophosphate+ascorbic acid (differentiated−Dex); and (3) DMEM+β-glycerophosphate+ascorbic acid+dexamethasone (differentiated+Dex). The differentiation of the cells under these different culture conditions was then confirmed by an RT-PCR to assay for genes which are induced during differentiation (osteopontin and osteocalcin). Osteopontin (OPN), is an early osteoblastic marker and osteocalcin (OCN) a late stage marker.
RNA was extracted from the cells and PCR was again performed for OPN and OCN.

odontoblasts = assay: Cell viability of rat odontoblasts; assay type: cell-based; details: 0.0164M-0.00164M HEMA with NAC 20 mM, about 12-14 hours, versus HEMA alone
Protocol: Differentiation was induced by the addition of about 10 mM of β-glycerophosphate and about 50 μg/ml of ascorbic acid.

IL-2 treated PBMCs = assay: Tritiated thymidine proliferation of IL-2 treated PBMCs; assay type: cell-based; details: HEMA and NAC, 24 hours with tritiated thymidine
Protocol: Tritiated thymidine was added to the cells and after 24 hours of incubation assessed for proliferation.

gingival cells = assay: Bleaching agent on rat palatal gingiva: gingival cell growth; assay type: in vivo, rats; details: bleaching agent on palatal gingiva 5 hours, without or with NAC; cells grown 21 days
Protocol: For gingival cells, the bleaching agent was applied in the same order of experimental groups to the palatal gingiva for 5 hours, washed and excised and minced and treated with collagenase (0.01%) for 48 hours before the single cell suspensions were prepared by washing and resuspending in DMEM. The cells were allowed to grow to confluency for 21 days before photographs were taken. […] FIG. 46 provides a graphical representation of cell survival.

dental pulp cells = assay: Rat incisor restoration with Herculite XR/ProBOND with or without NAC: pulp cell growth and ALP staining; assay type: in vivo, rats; details: restorative materials about 5 hours
Protocol: In a next experiment, the incisors of nine eight-week-old male rats were prepared with class V preparations near the level of the gingival using a #1 round bur in a high speed dental handpiece.
Again, in this experiment upper and lower incisors were used. Restorative materials were placed on the teeth for about 5 hours. The pulp was extracted and treated with trypsin/EDTA (0.25%) and collagenase (0.02%), washed and resuspended in DMEM containing β-glycerophosphate (10 mM) and ascorbic acid (50 μg/ml) and allowed to grow to confluency. After 14 days of cell growth (media changed every 2-3 days) photographs were taken using an inverted microscope; cells were detached and counted in each experimental group; and wells containing different experimental groups were stained for alkaline phosphatase (ALP).
In vivo studies were performed after tooth restorations to assess the protective effect of NAC on both the viability and function of rat pulp tissue. Eight week old male rats were used for restorations of the incisors. In this study the number of functional cells in cells extracted from the lining of the rat teeth where (A) no restorative materials were administered; (B) restorative materials only were applied; and (C) restorative material in conjunction with NAC were compared. Specifically, nine rats were used and were divided into 3 groups (A, B or C) of 3 rats each. […]

[4] = test system: dental pulp stromal cells; assay: Rat tooth bleaching: dental pulp stromal cell growth, count and ALP; assay type: in vivo, rats; details: bleaching agent 5 hours, without or with NAC 20 mM painted 5 minutes; 12-21 days
Protocol: Similar studies were also carried out using dental pulp stromal cells. Rats were divided into three groups: (1) Control (no bleach); (2) Bleach; and (3) Bleach and NAC. In these studies, NAC was initially painted on to the teeth (20 mM concentration) for 5 minutes and then bleaching agent applied for 5 hours, after which the teeth were extracted, and pulp was obtained from each group. Pulp was treated with trypsin/EDTA (0.25%) and collagenase (0.02%) to obtain single cell suspension of the cells, washed and resuspended in DMEM containing β-glycerophosphate (10 mM) and ascorbic acid (50 μg/ml), and allowed to grow to confluency, before either photographs were taken (12-21 days; FIG. 47); cells were counted (21 days; FIG. 48); or ALP staining was performed (21 days; FIG. 49). […] Whitening Strips

[5] = test system: human dental pulp stromal cells; assay: Extracted human teeth restored with composite resin with or without NAC: pulp cell growth; details: restorations left 5 hours; 14 days of incubation
Protocol: Three freshly extracted human teeth were obtained. Cavity preparations were performed on 2 freshly extracted third molars before restoration. One molar was left untouched and used as control. Specifically, tooth #1 was left untreated; tooth #2 was restored with composite resin alone; and tooth #3 was restored with composite resin after application of NAC. […] Single cell suspensions of control and each restored tooth were then cultured in the presence of β-glycerophosphate (10 mM) and ascorbic acid (50 μg/ml) and microscopic pictures taken after 14 days of incubation for growth.

[6] = test system: differentiated pulp cells (odontoblasts); assay: Composite discs on differentiated pulp cells, FITC-Annexin V/PI; assay type: cell-based; details: completely cured composite discs in 0.4 μm inserts; one week
Protocol: Next, the effects of routinely used composites on the odontoblasts were tested. The composite discs were made according to ADA specifications. These discs were completely cured for a total time of about 90 seconds. The discs were then placed into culture dish inserts (Millipore, Calif.). […] The insert along with the composite disc were placed into the well containing the differentiated pulp cells. After one week of incubation at about 37° C. the cells were removed and the numbers of apoptotic cells were analyzed using FITC-Annexin V/PI as described previously.

Compound: C=C(C)C(=O)OCCO [HEMA, hydroxyethyl methacrylate]
- cell death (FS, PI staining) [1]: induces significant cell death

Compound: CC(=O)N[C@@H](CS)C(=O)O [NAC, N-acetyl-cysteine]
- inhibition of HEMA-mediated cell death [2]: significant inhibition of HEMA-mediated cell death at all HEMA concentrations
- differentiation markers OPN and OCN [3]: express higher levels of OPN and OCN
- percentage of viable cells (odontoblasts): percentage of viable cells increases
- proliferation (IL-2 treated PBMCs): can prevent HEMA-induced loss of proliferation
- gingival cell death (gingival cells): ameliorated
- pulp cell number after restoration (dental pulp cells; 14 days of cell growth): can help to prevent the cell loss
- ALP staining of pulp cells after restoration (dental pulp cells; composite resin with or without NAC): can be ameliorated
- cytotoxicity and cell death of dental pulp stromal cells [4]: could be reversed
- growth of pulp cells [5]: growth and expansion of the cells resulted
- apoptotic cells (FITC-Annexin V/PI) [6]: inhibits cell death induced by light cured composite disks

Source: patent US8481005B2, “Methods to prevent cytotoxicity using N-acetyl-cysteine” (priority 2006, dated 2013)
